{"source": "PubChem BioAssay (NCI)", "experiment_in_all_cases": "inhibition of tumour cell growth, NCI panel, 48 h", "key": {"RXF 393 renal": {"test_system": "RXF 393 renal"}, "RPMI-8226 leukemia": {"test_system": "RPMI-8226 leukemia"}, "HT29 colon": {"test_system": "HT29 colon"}, "MOLT-4 leukemia": {"test_system": "MOLT-4 leukemia"}, "MDA-MB-435": {"test_system": "MDA-MB-435"}, "NCI-H522 lung": {"test_system": "NCI-H522 lung"}, "MDA-MB-231 breast": {"test_system": "MDA-MB-231 breast"}, "NCI-H23 lung": {"test_system": "NCI-H23 lung"}, "SK-MEL-28 melanoma": {"test_system": "SK-MEL-28 melanoma"}, "SK-MEL-2 melanoma": {"test_system": "SK-MEL-2 melanoma"}, "NCI/ADR-RES ovarian": {"test_system": "NCI/ADR-RES ovarian"}, "COLO 205 colon": {"test_system": "COLO 205 colon"}, "SK-MEL-5 melanoma": {"test_system": "SK-MEL-5 melanoma"}, "HCT-116 colon": {"test_system": "HCT-116 colon"}, "HCC-2998 colon": {"test_system": "HCC-2998 colon"}, "OVCAR-5 ovarian": {"test_system": "OVCAR-5 ovarian"}, "UO-31 renal": {"test_system": "UO-31 renal"}, "HL-60(TB) leukemia": {"test_system": "HL-60(TB) leukemia"}, "A498 renal": {"test_system": "A498 renal"}, "HS 578T breast": {"test_system": "HS 578T breast"}, "U251 CNS": {"test_system": "U251 CNS"}, "MCF7 breast": {"test_system": "MCF7 breast"}, "SNB-19 CNS": {"test_system": "SNB-19 CNS"}, "786-0 renal": {"test_system": "786-0 renal"}, "ACHN renal": {"test_system": "ACHN renal"}, "UACC-257 melanoma": {"test_system": "UACC-257 melanoma"}, "IGROV1 ovarian": {"test_system": "IGROV1 ovarian"}, "HOP-92 NSCLC": {"test_system": "HOP-92 NSCLC"}, "PC-3 prostate": {"test_system": "PC-3 prostate"}}, "note": "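Briefly, cells in 96-well plates were exposed to five compound concentrations for 48 h, and endpoints were estimated by linear interpolation. The concentration for 50% growth inhibition is given as GI50. TGI is the concentration that stops growth completely.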"}
{"smiles": "O=C(NNc1nc2cc(F)c(F)cc2n2c(CN3CC4CNCC4C3)ccc12)c1cnccn1", "note": "(configuration not stated)", "values": [{"measurement": "TGI", "setting": "RXF 393 renal", "value": 9.46, "unit": "µM"}, {"measurement": "GI50", "setting": "RPMI-8226 leukemia", "value": 1.3, "unit": "µM"}, {"measurement": "TGI", "setting": "RPMI-8226 leukemia", "value": 11.8, "unit": "µM"}, {"measurement": "GI50", "setting": "HT29 colon", "value": 0.726, "unit": "µM"}, {"measurement": "TGI", "setting": "HT29 colon", "value": 15.2, "unit": "µM"}, {"measurement": "GI50", "setting": "MOLT-4 leukemia", "value": 0.764, "unit": "µM"}, {"measurement": "TGI", "setting": "MOLT-4 leukemia", "value": 13.6, "unit": "µM"}, {"measurement": "GI50", "setting": "MDA-MB-435", "value": 2.53, "unit": "µM"}, {"measurement": "TGI", "setting": "MDA-MB-435", "value": 16.3, "unit": "µM"}, {"measurement": "GI50", "setting": "NCI-H522 lung", "value": 2.34, "unit": "µM"}, {"measurement": "TGI", "setting": "NCI-H522 lung", "value": 6.26, "unit": "µM"}, {"measurement": "GI50", "setting": "MDA-MB-231 breast", "value": 3.65, "unit": "µM"}, {"measurement": "TGI", "setting": "MDA-MB-231 breast", "value": 20.6, "unit": "µM"}, {"measurement": "GI50", "setting": "NCI-H23 lung", "value": 2.47, "unit": "µM"}, {"measurement": "TGI", "setting": "NCI-H23 lung", "value": 14.3, "unit": "µM"}, {"measurement": "GI50", "setting": "SK-MEL-28 melanoma", "value": 2.11, "unit": "µM"}, {"measurement": "TGI", "setting": "SK-MEL-28 melanoma", "value": 14.5, "unit": "µM"}, {"measurement": "GI50", "setting": "SK-MEL-2 melanoma", "value": 1.89, "unit": "µM"}, {"measurement": "TGI", "setting": "SK-MEL-2 melanoma", "value": 11.4, "unit": "µM"}, {"measurement": "GI50", "setting": "NCI/ADR-RES ovarian", "value": 2.6, "unit": "µM"}, {"measurement": "TGI", "setting": "NCI/ADR-RES ovarian", "value": 14.3, "unit": "µM"}, {"measurement": "GI50", "setting": "COLO 205 colon", "value": 0.874, "unit": "µM"}, {"measurement": "TGI", "setting": "COLO 205 colon", "value": 13.8, "unit": "µM"}, {"measurement": "GI50", "setting": "SK-MEL-5 melanoma", "value": 1.65, "unit": "µM"}, {"measurement": "TGI", "setting": "SK-MEL-5 melanoma", "value": 4.34, "unit": "µM"}, {"measurement": "GI50", "setting": "HCT-116 colon", "value": 0.588, "unit": "µM"}, {"measurement": "TGI", "setting": "HCT-116 colon", "value": 15.8, "unit": "µM"}, {"measurement": "GI50", "setting": "HCC-2998 colon", "value": 2.74, "unit": "µM"}, {"measurement": "TGI", "setting": "HCC-2998 colon", "value": 16.5, "unit": "µM"}, {"measurement": "GI50", "setting": "OVCAR-5 ovarian", "value": 1.75, "unit": "µM"}, {"measurement": "TGI", "setting": "OVCAR-5 ovarian", "value": 16.8, "unit": "µM"}, {"measurement": "GI50", "setting": "UO-31 renal", "value": 0.356, "unit": "µM"}, {"measurement": "TGI", "setting": "UO-31 renal", "value": 3.24, "unit": "µM"}, {"measurement": "GI50", "setting": "HL-60(TB) leukemia", "value": 1.15, "unit": "µM"}, {"measurement": "TGI", "setting": "HL-60(TB) leukemia", "value": 4.36, "unit": "µM"}, {"measurement": "GI50", "setting": "A498 renal", "value": 0.522, "unit": "µM"}, {"measurement": "TGI", "setting": "A498 renal", "value": 4.22, "unit": "µM"}, {"measurement": "GI50", "setting": "HS 578T breast", "value": 3.33, "unit": "µM"}, {"measurement": "TGI", "setting": "HS 578T breast", "value": 20.6, "unit": "µM"}, {"measurement": "GI50", "setting": "U251 CNS", "value": 0.741, "unit": "µM"}, {"measurement": "TGI", "setting": "U251 CNS", "value": 11.2, "unit": "µM"}, {"measurement": "GI50", "setting": "MCF7 breast", "value": 1.41, "unit": "µM"}, {"measurement": "TGI", "setting": "MCF7 breast", "value": 12.3, "unit": "µM"}, {"measurement": "GI50", "setting": "SNB-19 CNS", "value": 2.2, "unit": "µM"}, {"measurement": "TGI", "setting": "SNB-19 CNS", "value": 18.8, "unit": "µM"}, {"measurement": "GI50", "setting": "786-0 renal", "value": 0.609, "unit": "µM"}, {"measurement": "TGI", "setting": "786-0 renal", "value": 12.4, "unit": "µM"}, {"measurement": "GI50", "setting": "ACHN renal", "value": 0.429, "unit": "µM"}, {"measurement": "TGI", "setting": "ACHN renal", "value": 7.82, "unit": "µM"}, {"measurement": "GI50", "setting": "UACC-257 melanoma", "value": 2.09, "unit": "µM"}, {"measurement": "TGI", "setting": "UACC-257 melanoma", "value": 7.13, "unit": "µM"}, {"measurement": "GI50", "setting": "IGROV1 ovarian", "value": 0.904, "unit": "µM"}, {"measurement": "TGI", "setting": "IGROV1 ovarian", "value": 10.8, "unit": "µM"}, {"measurement": "GI50", "setting": "HOP-92 NSCLC", "value": 3.01, "unit": "µM"}, {"measurement": "TGI", "setting": "HOP-92 NSCLC", "value": 17.4, "unit": "µM"}, {"measurement": "GI50", "setting": "PC-3 prostate", "value": 1.25, "unit": "µM"}, {"measurement": "TGI", "setting": "PC-3 prostate", "value": 16.1, "unit": "µM"}]}
